Data from patent US20250137054A1, “COMPOSITION AND METHOD FOR EVALUATING RESPONSIVENESS OF EDARAVONE” (MITSUBISHI TANABE PHARMA CORPORATION, priority 2022, published 2025).

How the values were obtained:
Format in all cases: cell-based, rat
[1] = system: disease model cells (neurons derived from the 1464R cell line forcibly expressing wild-type and mutant TDP-43); assay: Evaluation of cell protection by microscopic observation; conditions: Eda 200 μmol/L 24 h, then EA 20 μmol/L 24 h; fluorescence microscope (FIG. 2)
Method: As a target, a 1464R adult rat neural stem cell line (hereinafter also referred to as the “1464R cell line” or “undifferentiated cell line”) was used.
Using a 96-well plate treated with poly-L-lysine, cells were seeded at a concentration of 8×10^4 cells/well, cultured and differentiated under the conditions of (1) in Example 1.
Then, cell morphology in each group was observed using a fluorescence microscope.
Cell nuclei were fluorescently stained using Hoechst 33342 using a conventional method.

[2] = system: disease model cells (neurons derived from the 1464R cell line forcibly expressing wild-type and mutant TDP-43); assay: RNA-seq gene expression analysis in disease model cells
Method: Using both vectors (a) and (b), the differentiated cell line in the infection medium was infected with adenovirus at a multiplicity of infection of 50, and cultured for 24 hours. As a result, neurons derived from the 1464R cell line, in which both wild-type and mutant TDP-43 were forcibly expressed intracellularly (hereinafter, also referred to as disease model cells), were obtained.
In the present evaluation, a 6-well plate treated with poly-L-lysine was used, cells were seeded at a density of 1×10^6 cells per well, cultured under the conditions of (1) of Example 1, and differentiated cells were used.
(3) Group 3 (TDP-43+EA exposed group; represented as ‘Group 3’ in FIG. 4 and FIGS. 7-11): After preparing the disease model cells expressing TDP-43, the cells were cultured in differentiation medium free of Eda but containing EA (final concentration 20 μmol/L) for 24 hours. This experimental group forcibly expresses TDP-43 and simulates conditions where the target has a neurodegenerative disease and remains untreated.
(4) Group 4 (TDP-43+EA+Eda exposed group; represented as ‘Group 4’ in FIG. 4 and FIGS. 7-11): After preparing the disease model cells expressing TDP-43, the cells were cultured in differentiation medium containing Eda (final concentration 50 μmol/L) but free of EA for 24 hours. After that, EA (final concentration 20 μmol/L) was further added, and the cells were further cultured for an additional 24 hours. This experimental group simulates conditions where the target with a neurodegenerative disease is administered or exposed to Eda.
After the culture was completed, cell pellets containing 1×10^6 or more cells were obtained from the experimental groups (1)-(4). Total RNA was extracted from these cell pellets using NucleoSpin RNA (manufactured by Macherey-Nagel) according to a product protocol.
Using the extracted total RNA (1.0 ng) as a template, double-stranded cDNA was synthesized using the SMART method using the SMART-Seq v4 Ultra (registered trademark) Low Input RNA Kit for Sequencing (manufactured by Clontech) according to a product protocol.
Next, using the NovaSeq6000 system (NovaSeq6000 S4 reagent kit, NovaSeq Xp4 lane kit, and NovaSeq control software (version 1.6.0); all manufactured by Illumina), sequences of the cDNA library were determined according to a product protocol.
Next, using the DRAGEN Bio-IT platform software (version 3.6.3, manufactured by Illumina) and referring to the rat genome assembly (version 6.0, top-level) and transcript annotation (release 101) obtained from the Ensembl database, types and abundance of genes were identified from the 150-base sequence information contained in the FASTQ files mentioned above.
(§1) An RNA expression level (TPM) of a transcription product i measured from the cDNA library of the experimental groups was calculated based on alignment to the rat genome and transcription product annotation from the Ensembl database, according to the following equation (A).
Differential expression analysis was performed using DESeq2 (a package for two-group comparison) in the statistical analysis software R (version 3.6.0) to calculate a log 2 ratio of RNA expression levels and a significance test. The log 2 ratio is a value expressed as “log 2 ([expression level of a first measurement target]/[expression level of a second measurement target]).”
The significance test was performed based on a p-value calculated by Wald test with multiple testing correction based on the Benjamini-Hochberg method (BH method).
In the present analysis, a gene with an absolute log 2 ratio of 1 or more (expression change ratio of 2.0 times or more or 0.50 times or less) and a p-value of 0.01 or less from the Wald test between any two groups was identified as a “gene with a change in expression level” (differentially expressed gene; DEG).
The X-axis represents a first principal component, and the Y-axis represents a second principal component, with their respective contribution rates expressed as percentages. […]

[3] = system: differentiated 1464R cell line (no forced TDP-43 expression); assay: RNA-seq gene expression analysis in differentiated cell line without TDP-43; conditions: Group 2 (Eda 50 μmol/L 48 h) vs Group 1 (control)
Method: Next, using a differentiation medium shown below, the 1464R cell line was cultured in an adherent state on a poly-L-lysine treated dish. Culture conditions for cell differentiation were 37° C., 5% CO2, and 4 days. Through this process, the 1464R cell line was differentiated into neuronal cells (neurons). Further, the 1464R cell line partly differentiated into glial cells. In the following description, the differentiated 1464R cell line is also collectively referred to as the “differentiated cell line.” […]
Next, using the NovaSeq6000 system (NovaSeq6000 S4 reagent kit, NovaSeq Xp4 lane kit, and NovaSeq control software (version 1.6.0); all manufactured by Illumina), sequences of the cDNA library were determined according to a product protocol. […]
as §1
Differential expression analysis was performed using DESeq2 (a package for two-group comparison) in the statistical analysis software R (version 3.6.0) to calculate a log 2 ratio of RNA expression levels and a significance test. The log 2 ratio is a value expressed as “log 2 ([expression level of a first measurement target]/[expression level of a second measurement target]).” […]

[4] = Group 3 (TDP43 + EA) vs Group 2 (Eda)
[5] = Group 4 (TDP43 + EA + Eda) vs Group 1 (control)
[6] = Group 4 (TDP43 + EA + Eda) vs Group 2 (Eda)
[7] = Group 4 (TDP43 + EA + Eda) vs Group 3 (TDP43 + EA)
[8] = Group 4 (TDP43+EA+Eda 50 μmol/L) vs Group 3 (TDP43+EA), RNA expression
[9] = in the presence of edaravone, TDP-43 mutant protein present

With `CC1=NN(c2ccccc2)C(=O)C1` [edaravone, 5-methyl-2-phenyl-2,4-dihydro-3H-pyrazol-3-one] the “neuron-specific protrusion shape observed by the localization of tubulin βIII” value [1] was “sufficiently maintained”, the “number of downregulated genes (DEGs)” value [2, 4] was 478 and the “number of upregulated genes (DEGs)” value [2, 4] was 876. The “number of downregulated genes (DEGs)” value [2, 5] was 1,095, the “number of upregulated genes (DEGs)” value [2, 5] was 1,654 and the “number of downregulated genes (DEGs)” value [2, 6] was 1,130. The “number of upregulated genes (DEGs)” value [2, 6] was 1,661, the “number of downregulated genes (DEGs)” value [2, 7] was 260 and the “number of upregulated genes (DEGs)” value [2, 7] was 169. For the same compound, the “gene expression profile (principal component analysis of RNA-seq data)” value ([2]; Group 4 (TDP43 + EA + Eda) vs Group 3 (TDP43 + EA), FIG. 6) was “distinctly different gene expression profiles”, the “Group 4 to Group 3 log2 ratio: Acsl6 (acyl-CoA synthetase long-chain family member 6)” value [2, 8] was −1.582 and the “Group 4 to Group 3 log2 ratio: Cebpb (CCAAT/enhancer binding protein beta)” value [2, 8] was 1.661. For the same compound, the “Group 4 to Group 3 log2 ratio: Glrx (glutaredoxin)” value [2, 8] was −1.262, the “Group 4 to Group 3 log2 ratio: Ho-1 (hemeoxygenase 1)” value [2, 8] was 1.755 and the “Group 4 to Group 3 log2 ratio: HspaS (heat shock protein family A (Hsp70) member 8)” value [2, 8] was 1.151. For the same compound, the “Group 4 to Group 3 log2 ratio: Hsph1 (heat shock protein family H (Hsp110) member 1)” value [2, 8] was 1.027, the “Group 4 to Group 3 log2 ratio: Mt1 (metallothionein 1)” value [2, 8] was −1.392 and the “Group 4 to Group 3 log2 ratio: Nefl (neurofilament light)” value [2, 8] was −1.778. The “Group 4 to Group 3 log2 ratio: Nfe2l2 (nuclear factor, erythroid 2-like 2)” value [2, 8] was 0.923, the “Group 4 to Group 3 log2 ratio: Nup43 (nucleoporin 43)” value [2, 8] was −0.888 and the “Group 4 to Group 3 log2 ratio: Pik3cb” value [2, 8] was 1.157. For the same compound, the “Group 4 to Group 3 log2 ratio: Plcg2 (phospholipase C, gamma 2)” value [2, 8] was 0.881, the “Group 4 to Group 3 log2 ratio: Plpp3 (phospholipid phosphatase 3)” value [2, 8] was 1.307 and the “Group 4 to Group 3 log2 ratio: Ptgds (prostaglandin D2 synthase)” value [2, 8] was 0.954. The “Group 4 to Group 3 log2 ratio: Sqstm1 (sequestosome 1)” value [2, 8] was 1.225, the “Group 4 to Group 3 log2 ratio: Txndc2 (thioredoxin domain containing 2)” value [2, 8] was 1.153 and the “log 2 ratio Group 4/Group 3: Alpl (ALPL)” value ([2]; Group 4 (TDP43+EA+Eda 50 μmol/L) vs Group 3 (TDP43+EA), RNA expression, DESeq2) was −1.098. The “expression level of a gene product of ALPL” value [2, 9] was “decreases”, the “expression level of a gene product of ASF1B” value [2, 9] was “decreases” and the “expression level of a gene product of DCTD” value [2, 9] was “decreases”. For the same compound, the “expression level of a gene product of FAIM2” value [2, 9] was “increases”, the “expression level of a gene product of FCSK” value [2, 9] was “decreases” and the “expression level of a gene product of HAUS4” value [2, 9] was “decreases”. For the same compound, the “expression level of a gene product of ITGB4” value [2, 9] was “decreases”, the “expression level of a gene product of KAZALD1” value [2, 9] was “decreases” and the “expression level of a gene product of MAST1” value [2, 9] was “decreases”. For the same compound, the “expression level of a gene product of MT2A” value [2, 9] was “decreases”, the “expression level of a gene product of NTM” value [2, 9] was “decreases” and the “expression level of a gene product of PTTG1” value [2, 9] was “decreases”. The “expression level of a gene product of SBK1” value [2, 9] was “decreases”, the “expression level of a gene product of SCN2A” value [2, 9] was “decreases” and the “expression level of a gene product of UBE2L6” value [2, 9] was “decreases”. For the same compound, the “number of downregulated genes (DEGs)” value [3] was 0/0 and the “number of upregulated genes (DEGs)” value [3] was 0/0.
